The target of data set [1] is T1, Thromboxane-A synthase (Homo sapiens, UniProt P24557).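 Also: enzyme inhibition assay with PGH2 supplied as substrate; in other assays of this panel Not Active means under 50% inhibition at 10 µM.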
T1 sequence (P24557 whole entry): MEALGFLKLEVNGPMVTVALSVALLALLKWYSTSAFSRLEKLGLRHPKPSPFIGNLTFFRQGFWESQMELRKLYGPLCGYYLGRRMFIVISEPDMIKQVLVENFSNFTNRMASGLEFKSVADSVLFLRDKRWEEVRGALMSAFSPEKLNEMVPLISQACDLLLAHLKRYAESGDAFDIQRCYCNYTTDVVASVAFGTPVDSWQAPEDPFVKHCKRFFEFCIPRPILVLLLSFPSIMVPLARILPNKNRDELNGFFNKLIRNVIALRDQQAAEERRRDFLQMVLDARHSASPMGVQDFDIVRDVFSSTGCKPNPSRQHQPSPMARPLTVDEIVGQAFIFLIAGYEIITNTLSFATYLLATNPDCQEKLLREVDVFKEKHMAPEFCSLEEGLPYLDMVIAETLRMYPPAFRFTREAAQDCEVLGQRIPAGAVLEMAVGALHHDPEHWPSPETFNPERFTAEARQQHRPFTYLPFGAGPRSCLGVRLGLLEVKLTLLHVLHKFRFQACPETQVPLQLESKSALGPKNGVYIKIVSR
Kind of data set: biochemical. To be noted: platelet. The data set is classed as tissue-based, Platelet.

The nature of data set [2]: DRUGMATRIX: Leukotriene, BLT (LTB4) radioligand binding (ligand: [3H]LTB4). Particulars: u-937; Not Active = under 50% inhibition at 10 µM. The data set is classed as cell membranes, Membrane.
Data set [3] addresses T2, Leukotriene C4 synthase (Cavia porcellus, UniProt A6XA80).
T2 sequence (A6XA80 whole entry): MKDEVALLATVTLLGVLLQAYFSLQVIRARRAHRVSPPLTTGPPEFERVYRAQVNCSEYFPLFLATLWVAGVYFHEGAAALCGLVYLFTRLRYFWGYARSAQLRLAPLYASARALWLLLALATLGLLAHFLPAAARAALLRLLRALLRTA
The data set is classed as tissue-based, Lung.

Data set [4] addresses T3, Muscarinic acetylcholine receptor M4 (Homo sapiens, UniProt P08173).
T3 sequence (P08173 whole entry): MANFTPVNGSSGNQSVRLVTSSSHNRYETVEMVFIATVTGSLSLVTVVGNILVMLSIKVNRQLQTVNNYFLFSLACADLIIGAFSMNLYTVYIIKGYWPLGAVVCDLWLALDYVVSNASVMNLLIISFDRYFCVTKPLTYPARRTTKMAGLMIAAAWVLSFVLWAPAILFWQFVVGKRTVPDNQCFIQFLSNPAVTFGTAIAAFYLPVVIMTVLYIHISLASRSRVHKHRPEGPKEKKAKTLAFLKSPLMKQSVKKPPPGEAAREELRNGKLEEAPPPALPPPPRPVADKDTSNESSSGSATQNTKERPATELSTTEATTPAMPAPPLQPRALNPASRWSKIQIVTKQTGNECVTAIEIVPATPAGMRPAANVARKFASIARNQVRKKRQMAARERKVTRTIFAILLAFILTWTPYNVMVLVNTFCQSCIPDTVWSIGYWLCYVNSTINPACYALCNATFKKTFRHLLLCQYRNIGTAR
The data set is classed as cell membranes, CHO-K1, Membrane. Particulars: cho-k1.

The target in data set [5] is Delta-type opioid receptor (Homo sapiens, UniProt P41143). The data set is classed as cell membranes, HEK293, Membrane. To be noted: hek293. Also: in other assays of this panel Not Active means under 50% inhibition at 10 µM.
The target of data set [6] is Mitogen-activated protein kinase 14 (Homo sapiens, UniProt Q16539). Details: species or system Escherichia coli.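 Also: inhibition of p38alpha enzyme activity in a biochemical kinase assay, with myelin basic protein serving as substrate; in other assays of this panel Not Active means under 50% inhibition at 10 µM.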
Data set [7] concerns the target Epidermal growth factor receptor (Homo sapiens, UniProt P00533). The experiment in a line: DRUGMATRIX: Protein Tyrosine Kinase, EGF Receptor enzyme inhibition (substrate: Poly(Glu:Tyr)). Particulars: Not Active = under 50% inhibition at 10 µM. The data set is classed as cell-based, Insect cells.
The target of data set [8] is Cytochrome P450 2C9 (Homo sapiens, UniProt P11712). To be noted: bti-tn-5b1-4. Also: in other assays of this panel Not Active means under 50% inhibition at 10 µM.

The values below come from ChEMBL document CHEMBL1909046, “DrugMatrix in vitro pharmacology data”.

Sequence of Delta-type opioid receptor (P41143 whole entry): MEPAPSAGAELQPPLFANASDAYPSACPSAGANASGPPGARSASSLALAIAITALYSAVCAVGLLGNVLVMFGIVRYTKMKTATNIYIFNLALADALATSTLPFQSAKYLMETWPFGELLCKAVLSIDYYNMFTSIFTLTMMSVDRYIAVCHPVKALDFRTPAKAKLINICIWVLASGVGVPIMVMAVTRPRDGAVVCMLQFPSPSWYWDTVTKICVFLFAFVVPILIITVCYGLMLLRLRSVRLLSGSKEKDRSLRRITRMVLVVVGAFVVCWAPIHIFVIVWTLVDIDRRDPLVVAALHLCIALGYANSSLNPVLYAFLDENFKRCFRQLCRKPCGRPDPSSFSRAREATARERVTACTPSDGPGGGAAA
Sequence of Epidermal growth factor receptor (P00533 whole entry): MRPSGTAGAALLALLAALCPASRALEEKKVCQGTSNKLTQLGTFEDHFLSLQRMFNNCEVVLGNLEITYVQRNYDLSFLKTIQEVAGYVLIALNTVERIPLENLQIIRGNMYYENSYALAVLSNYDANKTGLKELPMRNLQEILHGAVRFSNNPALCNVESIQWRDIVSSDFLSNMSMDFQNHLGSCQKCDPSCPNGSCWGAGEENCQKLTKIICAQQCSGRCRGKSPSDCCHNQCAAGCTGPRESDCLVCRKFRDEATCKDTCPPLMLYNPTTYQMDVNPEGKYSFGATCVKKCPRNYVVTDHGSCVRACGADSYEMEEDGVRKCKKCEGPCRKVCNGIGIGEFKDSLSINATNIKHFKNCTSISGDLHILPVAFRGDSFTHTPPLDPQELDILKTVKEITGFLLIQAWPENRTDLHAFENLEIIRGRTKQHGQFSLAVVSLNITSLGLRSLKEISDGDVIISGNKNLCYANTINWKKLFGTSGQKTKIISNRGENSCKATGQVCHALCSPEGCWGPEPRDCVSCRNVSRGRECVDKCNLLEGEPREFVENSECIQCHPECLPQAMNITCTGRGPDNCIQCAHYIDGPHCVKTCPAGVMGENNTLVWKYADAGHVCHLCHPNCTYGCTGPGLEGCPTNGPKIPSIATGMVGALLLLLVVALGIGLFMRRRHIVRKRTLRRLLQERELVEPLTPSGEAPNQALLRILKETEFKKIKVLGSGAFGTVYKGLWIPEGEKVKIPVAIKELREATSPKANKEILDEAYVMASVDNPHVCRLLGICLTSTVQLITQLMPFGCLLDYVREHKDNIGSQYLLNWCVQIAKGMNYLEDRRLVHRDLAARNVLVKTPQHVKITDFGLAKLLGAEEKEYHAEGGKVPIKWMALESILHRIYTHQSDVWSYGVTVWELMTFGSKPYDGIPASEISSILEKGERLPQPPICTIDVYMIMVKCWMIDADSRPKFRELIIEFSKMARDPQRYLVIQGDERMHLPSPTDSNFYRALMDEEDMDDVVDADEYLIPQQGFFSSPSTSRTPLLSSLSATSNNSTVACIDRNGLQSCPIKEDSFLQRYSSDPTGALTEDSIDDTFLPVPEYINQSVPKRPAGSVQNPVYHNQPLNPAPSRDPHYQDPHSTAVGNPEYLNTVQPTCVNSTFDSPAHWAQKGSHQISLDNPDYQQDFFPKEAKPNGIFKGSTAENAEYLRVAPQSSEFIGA
Sequence of Mitogen-activated protein kinase 14 (Q16539 whole entry): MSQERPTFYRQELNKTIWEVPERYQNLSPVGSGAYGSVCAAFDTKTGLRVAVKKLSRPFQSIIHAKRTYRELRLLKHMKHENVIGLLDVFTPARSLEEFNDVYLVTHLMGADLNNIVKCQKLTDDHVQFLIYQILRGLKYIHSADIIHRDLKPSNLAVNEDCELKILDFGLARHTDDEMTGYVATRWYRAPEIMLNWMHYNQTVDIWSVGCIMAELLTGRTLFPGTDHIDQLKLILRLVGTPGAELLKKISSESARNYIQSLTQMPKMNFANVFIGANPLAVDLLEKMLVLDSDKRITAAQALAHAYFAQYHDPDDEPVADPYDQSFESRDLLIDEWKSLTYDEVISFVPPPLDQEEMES
Sequence of Cytochrome P450 2C9 (P11712 whole entry): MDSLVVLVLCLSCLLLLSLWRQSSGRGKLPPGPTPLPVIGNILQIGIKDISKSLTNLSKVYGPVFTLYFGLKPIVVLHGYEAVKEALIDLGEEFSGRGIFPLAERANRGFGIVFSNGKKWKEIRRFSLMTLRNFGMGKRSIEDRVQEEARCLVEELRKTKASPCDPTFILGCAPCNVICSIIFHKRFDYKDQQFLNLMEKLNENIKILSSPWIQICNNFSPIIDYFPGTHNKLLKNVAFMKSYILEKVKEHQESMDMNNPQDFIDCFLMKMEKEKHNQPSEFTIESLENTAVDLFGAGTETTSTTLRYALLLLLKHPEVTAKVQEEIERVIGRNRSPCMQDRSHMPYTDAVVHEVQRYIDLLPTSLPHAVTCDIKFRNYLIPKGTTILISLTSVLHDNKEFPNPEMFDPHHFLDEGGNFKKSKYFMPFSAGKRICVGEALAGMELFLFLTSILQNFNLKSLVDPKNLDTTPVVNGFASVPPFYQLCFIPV

Turning to `CCOC(=O)[C@H](CCc1ccccc1)N[C@@H](C)C(=O)N1Cc2ccccc2C[C@H]1C(=O)O`, the half-inhibitory concentration (IC50) entry in data set [1], in data set [2], in data set [3], in data set [4], in data set [5] and in data set [6] was “Not Active” throughout. The half-inhibitory concentration (IC50) entry in data set [7] (insect cells) and in data set [8] was “Not Active” each time. For the same compound, the Ki result in data set [2] and in data set [8] was “Not Active” each time.
Consider `CCOC(=O)[C@H](CCc1ccccc1)N[C@@H](C)C(=O)N1CCC[C@H]1C(=O)O`, for which the IC50 entry in data set [1], in data set [2], in data set [3], in data set [4], in data set [5] and in data set [6] was “Not Active” throughout. The IC50 entry in data set [7] (insect cells) and in data set [8] was “Not Active” throughout. Besides, the Ki result in data set [2] and in data set [8] was “Not Active” in each case.
Regarding `Clc1cc2c(cc1Cl)Oc1cc(Cl)c(Cl)cc1O2` [2,3,7,8-TETRACHLORODIBENZO-P-DIOXIN], the IC50 result in data set [1], in data set [2], in data set [3], in data set [4], in data set [5] and in data set [6] was “Not Active” in each case. The half-inhibitory concentration (IC50) entry in data set [7] (insect cells) and in data set [8] was “Not Active” each time. Also, the Ki entry in data set [2] and in data set [8] was “Not Active” throughout.
As to `C=C1/C(=C\C=C2/CCC[C@]3(C)[C@@H]([C@H](C)CCCC(C)C)CC[C@@H]23)C[C@@H](O)C[C@@H]1O` [ALFACALCIDOL], the IC50 entry in data set [1], in data set [2], in data set [3], in data set [4], in data set [5] and in data set [6] was “Not Active” in each case. Besides, the IC50 entry in data set [7] (insect cells) and in data set [8] was “Not Active” in each case. Also, the Ki entry in data set [2] and in data set [8] was “Not Active” throughout.
Take `CCCCCC[C@H]1C(=O)O[C@H](C)[C@H](NC(=O)c2cccc(NC=O)c2O)C(=O)O[C@@H](C)[C@@H]1OC(=O)CC(C)C` [ANTIMYCIN A]: the half-maximal inhibitory concentration (IC50) entry in data set [1], in data set [2], in data set [3], in data set [4], in data set [5] and in data set [6] was “Not Active” each time. Also, the concentration for half-maximal inhibition (IC50) result in data set [7] (insect cells) and in data set [8] was “Not Active” each time. Further, the Ki result in data set [2] and in data set [8] was “Not Active” each time.
With `CO[C@H]1[C@@H](O)[C@H](N)[C@@H](O[C@H]2O[C@H]([C@H](C)N)CC[C@H]2N)[C@H](O)[C@@H]1N(C)C(=O)CN` [ASTROMICIN], the IC50 entry in data set [1], in data set [2], in data set [3], in data set [4], in data set [5] and in data set [6] was “Not Active” throughout. Also, the IC50 result in data set [7] (insect cells) and in data set [8] was “Not Active” throughout. The Ki result in data set [2] and in data set [8] was “Not Active” in each case.
Turning to `[N-]=[N+]=CC(=O)OC[C@H](N)C(=O)O` [AZASERINE], the IC50 result in data set [1], in data set [2], in data set [3], in data set [4], in data set [5] and in data set [6] was “Not Active” throughout. Besides, the half-maximal inhibitory concentration (IC50) result in data set [7] (insect cells) and in data set [8] was “Not Active” throughout. Also, the Ki result in data set [2] and in data set [8] was “Not Active” each time.
In the case of `CC[C@H]1OC(=O)[C@H](C)[C@@H](O[C@H]2C[C@@](C)(OC)[C@@H](O)[C@H](C)O2)[C@H](C)[C@@H](O[C@@H]2O[C@H](C)C[C@H](N(C)C)[C@H]2O)[C@](C)(O)C[C@@H](C)CN(C)[C@H](C)[C@@H](O)[C@]1(C)O` [AZITHROMYCIN], the IC50 result in data set [1], in data set [2], in data set [3], in data set [4], in data set [5] and in data set [6] was “Not Active” throughout. The IC50 result in data set [7] (insect cells) and in data set [8] was “Not Active” each time. Besides, the Ki result in data set [2] and in data set [8] was “Not Active” in each case.
Regarding `CC(C)(C)c1ccc(S(=O)(=O)/C=C/C#N)cc1` [BAY-11-7085], the IC50 result in data set [1], in data set [2], in data set [3], in data set [4], in data set [5] and in data set [6] was “Not Active” each time. Also, the IC50 entry in data set [7] (insect cells) and in data set [8] was “Not Active” each time. The Ki entry in data set [2] and in data set [8] was “Not Active” in each case.
As for `O=c1cc(-c2ccccc2)oc2ccc3ccccc3c12` [BETA-NAPHTHOFLAVONE], the IC50 entry in data set [1], in data set [2], in data set [3], in data set [4], in data set [5] and in data set [6] was “Not Active” in each case. The IC50 result in data set [7] (insect cells) and in data set [8] was “Not Active” throughout. For the same compound, the Ki result in data set [2] and in data set [8] was “Not Active” throughout.
Turning to `CC(C)C[C@H]1C(=O)N2CCC[C@H]2[C@]2(O)O[C@](NC(=O)[C@@H]3C=C4c5cccc6[nH]c(Br)c(c56)C[C@H]4N(C)C3)(C(C)C)C(=O)N12` [BROMOCRIPTINE], the IC50 result in data set [1], in data set [2], in data set [3], in data set [4], in data set [5] and in data set [6] was “Not Active” in each case. Besides, the IC50 result in data set [7] (insect cells) and in data set [8] was “Not Active” in each case. Also, the Ki result in data set [2] and in data set [8] was “Not Active” in each case.
As for `CS(=O)(=O)OCCCCOS(C)(=O)=O` [BUSULFAN], the 50% inhibitory concentration (IC50) entry in data set [1], in data set [2], in data set [3], in data set [4], in data set [5] and in data set [6] was “Not Active” throughout. The IC50 result in data set [7] (insect cells) and in data set [8] was “Not Active” throughout. Besides, the Ki result in data set [2] and in data set [8] was “Not Active” each time.
`O=C(/C=C/c1ccc(O)c(O)c1)OCCc1ccccc1` [CAFFEIC ACID PHENETHYL ESTER]: the 50% inhibitory concentration (IC50) entry in data set [1], in data set [2], in data set [3], in data set [4], in data set [5] and in data set [6] was “Not Active” each time. Moreover, the figures for the IC50 in data set [7] (read-out: IC50) and in data set [8] were 1010 nM and “Not Active”, respectively. Also, the Ki result in data set [2] and in data set [8] was “Not Active” in each case.
With `COc1cc(CNC(=O)CCCC/C=C/C(C)C)ccc1O` [CAPSAICIN], the 50% inhibitory concentration (IC50) entry in data set [1], in data set [2], in data set [3], in data set [4], in data set [5] and in data set [6] was “Not Active” in each case. Also, the 50% inhibitory concentration (IC50) result in data set [7] (insect cells) and in data set [8] was “Not Active” in each case. For the same compound, the Ki result in data set [2] and in data set [8] was “Not Active” in each case.
`NC(=O)N1c2ccccc2C=Cc2ccccc21` [CARBAMAZEPINE]: the 50% inhibitory concentration (IC50) result in data set [1], in data set [2], in data set [3], in data set [4], in data set [5] and in data set [6] was “Not Active” in each case. Besides, the IC50 entry in data set [7] (insect cells) and in data set [8] was “Not Active” each time. The Ki result in data set [2] and in data set [8] was “Not Active” throughout.
